Source: patent US10023519B2, “Cyclobutane containing carboxylic acid GPR120 modulators” (BRISTOL-MYERS SQUIBB COMPANY, priority 2014, dated 2018)

Target: human GPR120 (Homo sapiens (Human), UniProt Q5NUL3)
Assay: GPR120 pERK AlphaScreen SureFire Assay (human)
Type: cell-based
Conditions: CHO cells stably transfected with short form of human GPR120
Source text: GPR120 activity was monitored by measuring phosphorylation of ERK (pERK), since G protein receptors are known to activate the ERK signaling cascade either directly and/or through recruitment of arrestin that serves as a scaffold for downstream signaling events.
GPR120 pERK AlphaScreen SureFire Assay
The human and mouse GPR120-mediated intracellular phosphorylated ERK assays were established using CHOA12 cells stably transfected with the short form of human or mouse GPR120 receptor. […] Cells were cryo preserved at a concentration of 2×10^7 cells/mL, in 90% Charcoal/Dextran FBS and 10% DMSO, and frozen in liquid nitrogen at a low passage number.
The flasks were placed in a tissue culture incubator overnight (37° C., 5% CO2). […] The next day, cells were serum starved in 30 μL of F-12 media without any serum or antibiotics for 2 hours at 37° C.
Cells were then stimulated with 50 nL of compound dilutions using ECHO liquid handler for 7 minutes at 37° C.
(§1) The lysis buffer was diluted 5-fold with water before use. […] The SureFire assay reagent mix was prepared by mixing 60 parts Reaction Buffer, 10 parts Activation Buffer, 1 part Donor Beads, 1 part Acceptor Beads (Perkin Elmer Cat. #TGRES10K). 3.5 μL/well of this reagent mix was manually added to the proxiplate with a multichannel pipettor. Plates were spun down at 1000 rpm for 2 minutes, followed by light-protected incubation at room temperature for 2 hours. The plates were read on the Alpha-technology compatible Envision multilabel plate reader using AlphaScreen protocol according to manufacturer's specifications. The agonist effect of compounds was expressed as 100× (average sample−average blank)/(average total−average blank) where sample is the luminescence activity in the presence of test compound, blank is equal to the luminescence activity in the presence of DMSO control and the total is signal induced by 50 μM linolenic acid as reference compound. Activation data for the test compound over a range of concentrations was plotted as percentage activation of the test compound (100%=maximum response). After correcting for background, EC50 values were determined.
The human and mouse GPR120-mediated intracellular phosphorylated ERK assays were also established using CHO-K1 cells stably transfected with the short form of human or mouse GPR120 receptor. […] Cells were cryo preserved at a concentration of 3×10^6 cells/mL, in 70% F-12, 20% Charcoal/Dextran FBS and 10% DMSO, and frozen in liquid nitrogen at a low passage number.
The flasks were placed in a tissue culture incubator overnight (37° C., 5% CO2).
Cells were then stimulated with 40 nL of compound dilutions using ECHO liquid handler for 7 minutes at 37° C.
as §1, with “compound.” for “compound. Activation data for the test compound over a range of concentrations was plotted as percentage activation of the test compound (100%=maximum response). After correcting for background, EC50 values were determined.”
Activation data for the test compound over a range of concentrations was plotted as percentage activation of the test compound (100%=maximum response). After correcting for background, EC50 values were determined.

human GPR120, sequence (Q5NUL3 whole entry): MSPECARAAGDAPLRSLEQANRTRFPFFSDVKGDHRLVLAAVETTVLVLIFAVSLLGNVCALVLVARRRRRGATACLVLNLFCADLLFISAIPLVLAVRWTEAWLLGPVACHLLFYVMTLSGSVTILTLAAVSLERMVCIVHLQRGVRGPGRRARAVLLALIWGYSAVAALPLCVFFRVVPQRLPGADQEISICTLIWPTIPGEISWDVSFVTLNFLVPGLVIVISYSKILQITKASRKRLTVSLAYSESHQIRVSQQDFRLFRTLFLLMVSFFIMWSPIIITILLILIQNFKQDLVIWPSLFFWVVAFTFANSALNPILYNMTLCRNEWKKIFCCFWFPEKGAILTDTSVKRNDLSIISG

SMILES	EC50
CC(C)Oc1ccc(F)c(-c2ccc(C3CC4(C3)CC4C(=O)O)cc2)c1 (single isomer, unassigned) [Example 41, 5-(2′-Fluoro-5′-isopropoxy-[1,1′-biphenyl]-4-yl)spiro[2.3]hexane-1-carboxylic acid]	32000 nM
CC(C)Oc1ccc(F)c(-c2ccc(CC3CC(C(=O)O)C3)cc2)c1 (single isomer, unassigned) [Example 48, 3-((2′-Fluoro-5′-isopropoxy-[1,1′-biphenyl]-4-yl)methyl)cyclobutanecarboxylic acid]	790 nM
Cc1nc(-c2ccc(F)c(-c3ccc([C@H]4C[C@@H](OCC(=O)O)C4)cc3)c2)no1 [Example 21, Cis-2-(3-(2′-Fluoro-5′-(5-methyl-1,2,4-oxadiazol-3-yl)-[1,1′-biphenyl]-4-yl)cyclobutoxy)acetic acid]	550 nM
O=C(O)CO[C@H]1C[C@@H](c2ccc(-c3cc(Oc4cccc(F)c4)cc(F)c3F)cc2)C1 [Example 36, Cis-2-(3-(2′,3′-difluoro-5′-(3-fluorophenoxy)-[1,1′-biphenyl]-4-yl)cyclobutoxy) acetic acid]	130 nM
CC(C)Oc1ccc(F)c(-c2ccc(C3CC(CC(=O)O)C3)cc2)c1 (stereo not shown) [Example 43, 2-(3-(2′-Fluoro-5′-isopropoxy-[1,1′-biphenyl]-4-yl)cyclobutyl)acetic acid]	210 nM
COc1cc(OC(C)C)cc(-c2ccc([C@H]3C[C@@H](OCC(=O)O)C3)cc2)c1 [Example 19, Cis-2-(3-(3′-isopropoxy-5′-methoxy-[1,1′-biphenyl]-4-yl)cyclobutoxy)acetic acid]	1590 nM
CC(C)Oc1cccc(-c2ccc([C@H]3C[C@@H](OCC(=O)O)C3)cc2)c1F [Example 10, Cis-2-(3-(2′-fluoro-3′-isopropoxy-[1,1′-biphenyl]-4-yl)cyclobutoxy) acetic acid]	1020 nM
CC(C)Oc1cc(F)cc(-c2ccc([C@H]3C[C@@H](OCC(=O)O)C3)cc2)c1 [Example 18, Cis-2-(3-(3′-fluoro-5′-isopropoxy-[1,1′-biphenyl]-4-yl)cyclobutoxy) acetic acid]	3130 nM
O=C(O)CO[C@H]1C[C@@H](c2ccc(-c3cc(Oc4cccc(F)c4)cnc3Cl)cc2)C1 [Example 22, Cis-2-(3-(4-(2-Chloro-5-(3-fluorophenoxy)pyridin-3-yl)phenyl)cyclobutoxy)acetic acid]	360 nM
Cc1ccc(Oc2ccc(F)c(-c3ccc([C@H]4C[C@@H](OCC(=O)O)C4)cc3)c2)cn1 [Example 20, Cis-2-(3-(2′-fluoro-5′-((6-methylpyridin-3-yl)oxy)-[1,1′-biphenyl]-4-yl)cyclobutoxy) acetic acid]	270 nM
O=C(O)[C@H]1C[C@@H]1COCC1CC(c2cccc(Oc3ccccc3)c2)C1 (relative stereo) [Example 63, Trans-2-(((3-(3-phenoxyphenyl)cyclobutyl)methoxy)methyl)cyclopropanecarboxylic acid]	1260 nM
O=C(O)COCCC[C@H]1C[C@H](c2cccc(Oc3ccccc3)c2)C1 [Example 56, 2-(3-(Trans-3-(3-phenoxyphenyl)cyclobutyl)propoxy)acetic acid]	170 nM
C[C@]1(CCCOCC(=O)O)C[C@@H](c2cccc(Oc3ccccc3)c2)C1 [Example 60, 2-(3-(Cis-1-methyl-3-(3-phenoxyphenyl)cyclobutyl)propoxy)acetic acid]	740 nM
O=C(O)[C@H]1CC1[C@H]1C[C@@H](c2ccc(-c3cc(Oc4ccccc4)ccc3F)cc2)C1 (stereo in doubt) [Example 40, 2-(3-(2′-Fluoro-5′-phenoxy-[1,1′-biphenyl]-4-yl)cyclobutyl)cyclopropanecarboxylic acid]	9270 nM
O=C(O)COCC1CC(OCc2cccc(Oc3ccccc3)c2)C1 (stereo not shown) [Example 54, 2-((3-(3-Phenoxybenzyloxy)cyclobutyl)methoxy)acetic acid]	3850 nM
O=C(O)[C@H]1C[C@@H](Oc2ccc(-c3cc(Oc4ccccc4)ccc3F)cc2)C1 [Example 65, Cis-3-((2′-fluoro-5′-phenoxy-[1,1′-biphenyl]-4-yl)oxy)cyclobutanecarboxylic acid]	2270 nM

SMILES	EC50
CC(C)Oc1ccc(F)c(-c2ccc(C=C3CC(C(=O)O)C3)cc2)c1 (stereo not shown) [Example 47, 3-((2′-Fluoro-5′-isopropoxy-[1,1′-biphenyl]-4-yl)methylene)cyclobutanecarboxylic acid]	460 nM
O=C(O)C[C@H]1C[C@@H](Oc2ccc(-c3cc(Oc4ccccc4)ccc3F)cc2)C1 [Example 67, Cis-2-(3-((2′-fluoro-5′-phenoxy-[1,1′-biphenyl]-4-yl)oxy)cyclobutyl)acetic acid]	330 nM
COc1ccc(OC(F)(F)F)cc1-c1ccc([C@H]2C[C@@H](OCC(=O)O)C2)cc1 [Example 16, Cis-2-(3-(2′-methoxy-5′-(trifluoromethoxy)-[1,1′-biphenyl]-4-yl)cyclobutoxy)acetic acid]	480 nM
O=C(O)CO[C@H]1C[C@@H](c2ccc(-c3cc(OC4CCCOC4)ccc3F)cc2)C1 (stereo partly drawn) [Example 30, Cis2-(3-(2′-fluoro-5′-((tetrahydro-2H-pyran-3-yl)oxy)-[1,1′-biphenyl]-4-yl)cyclobutoxy)acetic acid]	1400 nM
O=C(O)CCC[C@H]1C[C@@H](OCc2cccc(Oc3ccccc3)c2)C1 [Example 53, 4-(Cis-3-(3-phenoxybenzyloxy)cyclobutyl)butanoic acid]	430 nM
O=C(O)CO[C@H]1C[C@@H](c2ccc(-c3cc(Oc4ccccn4)ccc3F)cc2)C1 [Example 26, Cis-2-(3-(2′-fluoro-5′-(pyridin-2-yloxy)-[1,1′-biphenyl]-4-yl)cyclobutoxy) acetic acid]	490 nM
CC(C)Oc1ccc(F)c(-c2ccc([C@H]3C[C@@H](OCC(=O)O)C3)cc2)c1F [Example 15, Cis-2-(3-(2′,6′-difluoro-3′-isopropoxy-[1,1′-biphenyl]-4-yl)cyclobutoxy)acetic acid]	800 nM
O=C(O)COCCC[C@H]1C[C@@H](OCc2cccc(Oc3ccccc3)c2)C1 [Example 59, 2-(3-(Cis-3-(3-phenoxybenzyloxy)cyclobutyl)propoxy)acetic acid]	520 nM
CC1(C)Cc2cc(Cl)cc(-c3ccc([C@H]4C[C@@H](OCC(=O)O)C4)cc3)c2O1 [Example 24, Cis-2-(3-(4-(5-chloro-2,2-dimethyl-2,3-dihydrobenzofuran-7-yl)phenyl)cyclobutoxy) acetic acid]	2900 nM
CC(C)Sc1ncc(C(F)(F)F)cc1-c1ccc([C@H]2C[C@@H](OCC(=O)O)C2)cc1 [Example 13, Cis-2-(3-(4-(2-(isopropylthio)-5-(trifluoromethyl)pyridin-3-yl)phenyl)cyclobutoxy)acetic acid]	2610 nM
COc1cc(Cl)cc(-c2ccc([C@H]3C[C@@H](OCC(=O)O)C3)cc2)c1 [Example 6, Cis-2-(3-(3′-chloro-5′-methoxy-[1,1′-biphenyl]-4-yl)cyclobutoxy)acetic acid]	880 nM
Cc1nc(-c2ccccc2)c(-c2ccc([C@H]3C[C@@H](OCC(=O)O)C3)cc2)s1 [Example 23, Cis-2-(3-(4-(2-Methyl-4-phenylthiazol-5-yl)phenyl)cyclobutoxy)acetic acid]	3460 nM
O=C(O)CO[C@H]1C[C@@H](c2ccc(-c3cc(OC(F)(F)F)ccc3Cl)cc2)C1 [Example 8, Cis-2-(3-(2′-chloro-5′-(trifluoromethoxy)-[1,1′-biphenyl]-4-yl)cyclobutoxy)acetic acid]	900 nM
O=C(O)[C@H]1C[C@H](Oc2ccc(-c3cc(Oc4ccccc4)ccc3F)cc2)C1 [Example 64, Trans-3-((2′-fluoro-5′-phenoxy-[1,1′-biphenyl]-4-yl)oxy)cyclobutanecarboxylic acid]	440 nM
O=C(O)CO[C@H]1C[C@@H](c2ccc(-c3cc(Oc4ccncc4)ccc3F)cc2)C1 [Example 25, Cis-2-(3-(2′-fluoro-5′-(pyridin-4-yloxy)-[1,1′-biphenyl]-4-yl)cyclobutoxy)acetic acid]	1900 nM
